In patent US4931444A, “5-lipoxygenase inhibiting 4-(4-phenyl-1-piperazinyl)phenols” (Janssen Pharmaceutica N.V., priority 1989, dated 1990) one finds inhibition and inhibition in vivo data, which are given here for 5 compounds.

Usually inhibition stands for the change of the read-out against control, counted positive when it falls.

The target in one experiment is T1, 5-lipoxygenase (Rattus norvegicus, UniProt P12527).
T1 construct: The supernatant, aliquoted and stored at -70° C., was used as the source of 5-lipoxygenase activity; endogenous in cells; host or cells: Rat basophilic leukemia (RBL) cells, 10,000×g supernatant of the sonicate (crude, not purified)
T1 sequence (P12527 1-673): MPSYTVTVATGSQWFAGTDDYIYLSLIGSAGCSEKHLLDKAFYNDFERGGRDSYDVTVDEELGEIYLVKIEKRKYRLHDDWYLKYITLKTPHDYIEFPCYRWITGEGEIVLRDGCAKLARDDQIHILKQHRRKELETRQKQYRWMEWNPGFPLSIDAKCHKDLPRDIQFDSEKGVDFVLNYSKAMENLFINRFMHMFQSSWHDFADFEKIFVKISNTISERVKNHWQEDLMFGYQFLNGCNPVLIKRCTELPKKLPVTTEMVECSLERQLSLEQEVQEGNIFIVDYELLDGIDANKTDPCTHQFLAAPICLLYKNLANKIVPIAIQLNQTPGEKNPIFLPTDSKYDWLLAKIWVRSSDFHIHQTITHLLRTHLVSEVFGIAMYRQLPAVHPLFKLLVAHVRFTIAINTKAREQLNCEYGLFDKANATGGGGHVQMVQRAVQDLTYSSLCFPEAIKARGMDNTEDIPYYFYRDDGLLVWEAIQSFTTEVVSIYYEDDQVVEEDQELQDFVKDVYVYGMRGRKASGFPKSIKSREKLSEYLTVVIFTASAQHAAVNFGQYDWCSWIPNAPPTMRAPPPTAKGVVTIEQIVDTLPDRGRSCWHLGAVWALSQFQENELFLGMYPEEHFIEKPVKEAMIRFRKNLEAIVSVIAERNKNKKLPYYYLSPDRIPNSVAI
Nature of the experiment: Arachidonate 5-lipoxygenase inhibition in Rat Basophilic Leukemia Cells Supernatant. The class given is biochemical. More on the design: dose or concentration left out as unconfirmed. The conditions noted are these: Column A; 5-HPETE and LTB4 formation; read-out: 5-lipoxygenase inhibition in RBL cells supernatant, % inhibition.

Experiment [1] concerns Dextran-induced edema formation in the ears of mice. The experiment can be described thus: Inhibition of Dextran-induced edema formation in the ears of mice. The class given is in vivo, male Swiss mice. The conditions noted are these: Mus musculus, po, Column B, at 10 mg/kg body weight, 1 h before dextran, read-out: inhibition of Dextran-induced blueing of the ears of mice, % inhibition. The text has this: Inhibition of Dextran-induced edema formation in the ears of mice.
Intravenous injection of Dextran T500® (Pharmacia) and pontamine sky-blue dye into mice results in increased vascular permeability and edema formation, characterized by an intense blueing of the ears. Determination of the amount of extravasated dye is presumed to yield a quantitative measure of the 5-lipoxygenase inhibiting activity of the test compounds (Drug. Dev. Res. 8, 213-218, 1986). Unfasted male Swiss mice weighing 24-26 g were used in the experiments which were performed between 13.00 pm and 17.00 pm at an ambient temperature of 22±1° C. The mice were treated orally with a test compound of formula (I) dissolved in a volume of […] of either polyethyleneglycol (PEG 200) or hydroxypropyl cyclodextrine at doses varying between 1.25 and 40 mg per kg bodyweight. In control experiments the mice were administered an identical amount of solvent alone. One hour after treatment there was injected intravenously an isotonic saline solution containing 60 mg/ml Dextran T500® and 13 mg/ml pontamine sky-blue dye in a volume of 0.1 ml per 10 g bodyweight. One hour and forty-five minutes later the animals were sacrificed by ether and their ears were removed. Extraction and quantification of the extravasated dye were performed as described (Drug Dev. Res. 8, 213-218, 1986). The calculated percentage of inhibition of ear blueing upon administration of a compound of formula (I) at a dose of 10 mg/kg bodyweight is shown in the second column of table 12.

As for `CCC(C)n1nc(C)n(-c2ccc(N3CCN(c4cc(C)c(O)c(C)c4)CC3)cc2)c1=O` (stereo not shown) [Compound 7.50, 2,4-dihydro-4-[4-[4-(4-hydroxy-3,5-dimethylphenyl)-1-piperazinyl]phenyl]-5-methyl-2-(1-methylpropyl)-3H-1,2,4-triazol-3-one], the inhibition at 5-lipoxygenase came to 52%. The inhibition in vivo at 10 mg/kg in experiment [1] came to 88%.

With `Cc1cc(N2CCN(c3ccc(-n4c(C)nn(C(C)C(=O)c5ccc(Br)cc5)c4=O)cc3)CC2)cc(C)c1O` (stereo not shown) [Compound 7.51, 2-[2-(4-bromophenyl)-1-methyl-2-oxoethyl]-2,4-dihydro-4-[4-[4-(4-hydroxy-3,5-dimethylphenyl)-1-piperazinyl]phenyl]-5-methyl-3H-1,2,4-triazol-3-one], the inhibition at 5-lipoxygenase was determined as 93%. Further, the inhibition in vivo at 10 mg/kg in experiment [1] was found to be 83%.

On to `Cc1cc(N2CCN(c3ccc(-n4c(C)nn(C(C)C(O)c5ccc(Br)cc5)c4=O)cc3)CC2)cc(C)c1O` (stereo not shown) [Compound 7.54, 2-[2-(4-bromophenyl)-2-hydroxy-1-methylethyl]-2,4-dihydro-4-[4-[4-(4-hydroxy-3,5-dimethylphenyl)-1-piperazinyl]phenyl]-5-methyl-3H-1,2,4-triazol-3-one], for which the inhibition at 5-lipoxygenase is 79%. For the same compound, the inhibition in vivo at 10 mg/kg in experiment [1] was 76%.

Take `Cc1nn(C(C)C(=O)c2ccc(Br)cc2)c(=O)n1-c1ccc(N2CCN(c3ccc(O)cc3)CC2)cc1` (stereo not shown) [Compound 7.57, 2-[2-(4-bromophenyl)-1-methyl-2-oxoethyl]-2,4-dihydro-4-[4-[4-(4-hydroxyphenyl)-1-piperazinyl]phenyl]-5-methyl-3H-1,2,4-triazol-3-one]: the inhibition on 5-lipoxygenase was 90%. Besides, the inhibition in vivo at 10 mg/kg in experiment [1] was 82%.

For the compound `CCCn1c(=O)n(CCC)c(=O)n(-c2ccc(N3CCN(c4ccc(O)cc4)CC3)cc2)c1=O` [Compound 9.03], the inhibition on 5-lipoxygenase came out at 58%. Moreover, in experiment [1], the inhibition in vivo at 10 mg/kg was determined as 94%.
